Test results published in ChEMBL document CHEMBL4261623, “Synthesis, computational studies and antiproliferative activities of coumarin-tagged 1,3,4-oxadiazole conjugates against MDA-MB-231 and MCF-7 human breast cancer cells” (Bioorg Med Chem, 2018).

How the values were obtained:
MDA-MB-231 [1] = test: Antiproliferative activity against human MDA-MB-231 cells after 24 hrs by MTT assay; format: functional, cell-based; conditions: MDA-MB-231, 24 h
MCF7 [2] = test: Antiproliferative activity against human MCF7 cells after 24 hrs by MTT assay; format: functional, cell-based; conditions: MCF7, 24 h
MCF7 [3] = test: Potency index, ratio of tamoxifen IC50 to compound IC50 for antiproliferative activity against human MCF7 cells; format: functional
MDA-MB-231 [4] = test: Potency index, ratio of tamoxifen IC50 to compound IC50 for antiproliferative activity against human MDA-MB-231 cells; format: functional

Row | Structure (SMILES) | IC50 (MDA-MB-231 [1]) [µM] | IC50 (MCF7 [2]) [µM] | Ratio IC50 (MCF7 [3]) | Ratio IC50 (MDA-MB-231 [4])
1 | CSc1nnc(COc2cc(C)c3c(C)cc(=O)oc3c2)o1 | > 100 | > 100 | – | –
2 | CCCCCCSc1nnc(COc2cc(C)c3c(C)cc(=O)oc3c2)o1 | > 100 | > 100 | – | –
3 | Cc1cc(OCc2nnc(S(=O)(=O)Cc3ccc(F)c(F)c3)o2)cc2oc(=O)cc(C)c12 | 31.6 | 55.2 | – | –
4 | Cc1cc(OCc2nnc(SCc3ccc(Cl)cc3Cl)o2)cc2oc(=O)cc(C)c12 | > 100 | < 5 | 1.4 | –
5 | CCCCCCS(=O)(=O)c1nnc(COc2cc(C)c3c(C)cc(=O)oc3c2)o1 | > 100 | > 100 | – | –
6 | Cc1cc(OCc2nnc(SCc3cccc(F)c3)o2)cc2oc(=O)cc(C)c12 | > 100 | 26 | – | –
7 | Cc1cc(OCc2nnc(S(=O)(=O)Cc3cccc(F)c3)o2)cc2oc(=O)cc(C)c12 | 21.3 | 70.4 | – | –
8 | CCSc1nnc(COc2cc(C)c3c(C)cc(=O)oc3c2)o1 | > 100 | > 100 | – | –
9 | CCCCSc1nnc(COc2cc(C)c3c(C)cc(=O)oc3c2)o1 | > 100 | > 100 | – | –
10 | Cc1cc(OCc2nnc(SCc3ccccc3)o2)cc2oc(=O)cc(C)c12 | > 100 | > 100 | – | –
11 | CCS(=O)(=O)c1nnc(COc2cc(C)c3c(C)cc(=O)oc3c2)o1 | > 100 | > 100 | – | –
12 | CCCS(=O)(=O)c1nnc(COc2cc(C)c3c(C)cc(=O)oc3c2)o1 | 7.07 | > 100 | – | 7
13 | Cc1cc(OCc2nnc(SCc3ccc(F)c(F)c3)o2)cc2oc(=O)cc(C)c12 | > 100 | 33.3 | – | –
14 | Cc1cc(OCc2nnc(S(=O)(=O)Cc3ccccc3)o2)cc2oc(=O)cc(C)c12 | 7.07 | 38.6 | – | 7
15 | CCCSc1nnc(COc2cc(C)c3c(C)cc(=O)oc3c2)o1 | > 100 | > 100 | – | –
16 | CCCCCSc1nnc(COc2cc(C)c3c(C)cc(=O)oc3c2)o1 | > 100 | > 100 | – | –
17 | CC/C(=C(\c1ccccc1)c1ccc(OCCN(C)C)cc1)c1ccccc1 [TAMOXIFEN] | 47.1 | 7.09 | – | –
